Measured values as given in the supplement of paper PMC10733146.

Columns and labels:
Assay in all cases: viability relative to DMSO control (fraction); higher = less drug effect (more viable cells)
Conditions in all cases: 48 h
[1] = system: primary AML patient cells (S021)
Outline: (§1)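 Cells were incubated for 48 h at 37 °C and 5% CO2 in RPMI-1640 with penicillin/streptomycin, L-glutamine and human serum, at 4 × 10^4 cells per well in 384-well plates with compounds pre-plated at five concentrations, one well each. These were primary mononuclear tumour cells, fresh or cryopreserved, Ficoll-isolated from blood or bone marrow or obtained from processed lymph node. Viability values are CellTiter-Glo luminescence relative to the median of 16 inner DMSO wells.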

[2] = system: primary B-PLL patient cells (S016)
Outline: as §1

[3] = system: primary AML patient cells (S071)
Outline: as §1

[4] = system: primary AML patient cells (S060)
Outline: as §1

[5] = system: primary DLBCL patient cells (S049)
Outline: as §1

[6] = system: primary ALL patient cells (S088)
Outline: as §1

[7] = system: primary AML patient cells (S085)
Outline: as §1

[8] = system: primary AML patient cells (S019)
Outline: as §1

[9] = system: primary DLBCL patient cells (S076)
Outline: as §1

[10] = system: primary T-NHL patient cells (S058)
Outline: as §1

[11] = system: primary AML patient cells (S017)
Outline: as §1

[12] = system: primary AML patient cells (S002)
Outline: as §1

[13] = system: primary AML patient cells (S011)
Outline: as §1

[14] = system: primary CLL patient cells (S043)
Outline: as §1

[15] = system: primary AML patient cells (S081)
Outline: as §1

[16] = system: primary AML patient cells (S025)
Outline: as §1

[17] = system: primary BL patient cells (S005)
Outline: as §1

Nc1ccn([C@@H]2O[C@H](CO)[C@@H](O)[C@@H]2O)c(=O)n1 [Cytarabine]
viability ([1]; 0.032 µM): 1.03
viability ([1]; 0.16 µM): 1.1
viability ([1]; 0.8 µM): 0.882
viability ([1]; 4 µM): 0.849
viability ([1]; 20 µM): 0.419
viability ([2]; 0.032 µM): 1.11
viability ([2]; 0.16 µM): 0.733
viability ([2]; 0.8 µM): 0.145
viability ([2]; 4 µM): 0.0425
viability ([2]; 20 µM): 0.0373
viability ([3]; 0.032 µM): 0.891
viability ([3]; 0.16 µM): 0.797
viability ([3]; 0.8 µM): 0.64
viability ([3]; 4 µM): 0.257
viability ([3]; 20 µM): 0.172
viability ([4]; 0.032 µM): 1.09
viability ([4]; 0.16 µM): 1.02
viability ([4]; 0.8 µM): 1.01
viability ([4]; 4 µM): 0.505
viability ([4]; 20 µM): 0.132
viability ([5]; 0.032 µM): 1.01
viability ([5]; 0.16 µM): 0.886
viability ([5]; 0.8 µM): 0.673
viability ([5]; 4 µM): 0.264
viability ([5]; 20 µM): 0.143
viability ([6]; 0.032 µM): 1.08
viability ([6]; 0.16 µM): 0.969
viability ([6]; 0.8 µM): 0.676
viability ([6]; 4 µM): 0.304
viability ([6]; 20 µM): 0.138
viability ([7]; 0.032 µM): 1.1
viability ([7]; 0.16 µM): 1.02
viability ([7]; 0.8 µM): 0.925
viability ([7]; 4 µM): 0.372
viability ([7]; 20 µM): 0.106
viability ([8]; 0.032 µM): 1.19
viability ([8]; 0.16 µM): 1.15
viability ([8]; 0.8 µM): 0.871
viability ([8]; 4 µM): 0.387
viability ([8]; 20 µM): 0.24
viability ([9]; 0.032 µM): 1.01
viability ([9]; 0.16 µM): 0.793
viability ([9]; 0.8 µM): 0.711
viability ([9]; 4 µM): 0.319
viability ([9]; 20 µM): 0.118
viability ([10]; 0.032 µM): 0.81
viability ([10]; 0.16 µM): 0.397
viability ([10]; 0.8 µM): 0.237
viability ([10]; 4 µM): 0.166
viability ([10]; 20 µM): 0.108
viability ([11]; 0.032 µM): 1.11
viability ([11]; 0.16 µM): 1.07
viability ([11]; 0.8 µM): 1.15
viability ([11]; 4 µM): 0.665
viability ([11]; 20 µM): 0.303
viability ([12]; 0.032 µM): 1.04
viability ([12]; 0.16 µM): 0.899
viability ([12]; 0.8 µM): 0.607
viability ([12]; 4 µM): 0.317
viability ([12]; 20 µM): 0.26
viability ([13]; 0.032 µM): 1.52
viability ([13]; 0.16 µM): 1.04
viability ([13]; 0.8 µM): 0.942
viability ([13]; 4 µM): 0.681
viability ([13]; 20 µM): 0.224
viability ([14]; 0.032 µM): 1.1
viability ([14]; 0.16 µM): 0.975
viability ([14]; 0.8 µM): 0.707
viability ([14]; 4 µM): 0.236
viability ([14]; 20 µM): 0.0952
viability ([15]; 0.032 µM): 1.1
viability ([15]; 0.16 µM): 1.07
viability ([15]; 0.8 µM): 1.14
viability ([15]; 4 µM): 0.884
viability ([15]; 20 µM): 0.4
viability ([16]; 0.032 µM): 1.02
viability ([16]; 0.16 µM): 0.877
viability ([16]; 0.8 µM): 0.649
viability ([16]; 4 µM): 0.324
viability ([16]; 20 µM): 0.112
viability ([17]; 0.032 µM): 1.03
viability ([17]; 0.16 µM): 1.02
viability ([17]; 0.8 µM): 0.98
viability ([17]; 4 µM): 0.969
viability ([17]; 20 µM): 0.893

CS(=O)(=O)c1ccc(C(=O)Nc2ccc(Cl)c(-c3ccccn3)c2)c(Cl)c1 [Vismodegib]
viability ([1]; 0.024 µM): 0.893
viability ([1]; 0.12 µM): 0.888
viability ([1]; 0.6 µM): 0.886
viability ([1]; 3 µM): 0.858
viability ([1]; 15 µM): 0.808
viability ([2]; 0.024 µM): 0.862
viability ([2]; 0.12 µM): 0.917
viability ([2]; 0.6 µM): 0.921
viability ([2]; 3 µM): 0.857
viability ([2]; 15 µM): 0.92
viability ([3]; 0.024 µM): 0.865
viability ([3]; 0.12 µM): 0.899
viability ([3]; 0.6 µM): 0.879
viability ([3]; 3 µM): 0.906
viability ([3]; 15 µM): 0.891
viability ([4]; 0.024 µM): 0.945
viability ([4]; 0.12 µM): 0.966
viability ([4]; 0.6 µM): 0.97
viability ([4]; 3 µM): 0.971
viability ([4]; 15 µM): 0.997
viability ([5]; 0.024 µM): 0.909
viability ([5]; 0.12 µM): 0.939
viability ([5]; 0.6 µM): 0.887
viability ([5]; 3 µM): 0.878
viability ([5]; 15 µM): 0.887
viability ([6]; 0.024 µM): 0.762
viability ([6]; 0.12 µM): 0.764
viability ([6]; 0.6 µM): 0.779
viability ([6]; 3 µM): 0.797
viability ([6]; 15 µM): 0.862
viability ([7]; 0.024 µM): 0.89
viability ([7]; 0.12 µM): 0.925
viability ([7]; 0.6 µM): 0.928
viability ([7]; 3 µM): 0.952
viability ([7]; 15 µM): 1.05
viability ([8]; 0.024 µM): 0.903
viability ([8]; 0.12 µM): 0.997
viability ([8]; 0.6 µM): 0.855
viability ([8]; 3 µM): 0.873
viability ([8]; 15 µM): 0.989
viability ([9]; 0.024 µM): 1.01
viability ([9]; 0.12 µM): 1.07
viability ([9]; 0.6 µM): 1.07
viability ([9]; 3 µM): 1.05
viability ([9]; 15 µM): 1.01
viability ([10]; 0.024 µM): 0.913
viability ([10]; 0.12 µM): 0.978
viability ([10]; 0.6 µM): 0.953
viability ([10]; 3 µM): 0.926
viability ([10]; 15 µM): 1.01
viability ([11]; 0.024 µM): 0.901
viability ([11]; 0.12 µM): 0.922
viability ([11]; 0.6 µM): 0.907
viability ([11]; 3 µM): 0.927
viability ([11]; 15 µM): 0.955
viability ([12]; 0.024 µM): 0.854
viability ([12]; 0.12 µM): 0.923
viability ([12]; 0.6 µM): 0.862
viability ([12]; 3 µM): 0.957
viability ([12]; 15 µM): 0.87
viability ([13]; 0.024 µM): 0.771
viability ([13]; 0.12 µM): 0.871
viability ([13]; 0.6 µM): 1.11
viability ([13]; 3 µM): 0.914
viability ([13]; 15 µM): 0.92
viability ([14]; 0.024 µM): 0.915
viability ([14]; 0.12 µM): 0.903
viability ([14]; 0.6 µM): 0.923
viability ([14]; 3 µM): 0.922
viability ([14]; 15 µM): 0.965
viability ([15]; 0.024 µM): 0.926
viability ([15]; 0.12 µM): 0.946
viability ([15]; 0.6 µM): 0.915
viability ([15]; 3 µM): 0.923
viability ([15]; 15 µM): 1
viability ([16]; 0.024 µM): 0.963
viability ([16]; 0.12 µM): 0.984
viability ([16]; 0.6 µM): 0.955
viability ([16]; 3 µM): 0.89
viability ([16]; 15 µM): 0.902
viability ([17]; 0.024 µM): 1.12
viability ([17]; 0.12 µM): 0.893
viability ([17]; 0.6 µM): 1.12
viability ([17]; 3 µM): 1.14
viability ([17]; 15 µM): 0.824
